Laboratory results reported in patent publication US7550468B2, “Theophylline and 3-isobutyl-1 methylxanthine based N-7 substituted derivatives displaying inhibitory activities on PDE-5 phospodiesterase” (priority 2000, dated 2009).

Key:
PDE5 (human platelet) = target: T1, PDE5 (human platelet) (Homo sapiens, UniProt O76074); assay: PDE5 (human platelet) inhibition; type: biochemical
T1 construct: PDE5 (human); from tissue; host or cells: human platelets

Rabbit Corpus Cavernosal = assay: Relaxation of phenylephrine precontracted rabbit corpus cavernosal strips; type: cell-based; conditions: for IC50 / EC50: Oryctolagus cuniculus
From the text: Recently some reports have stated that theophyllline has an adenosine […] antagonist and phosphodiesterase (PDE) inhibitor function. […] FIG. 4A illustrates the experimental results and the effects of compound 14 on phenylphrine precontracted rabbit corpus cavemosal in the absence and presence of L-NAME, methylene blue, ODQ. FIG. 4B illustrates the experimental results and the effects of compound 14 on phenylphrine precontracted rabbit corpus cavernosal in absence and presence of potassium channel blockers.

intracavernous pressure = assay: Intracavernous pressure and tumescence response in rabbits; type: in vivo; conditions: 2 mg/kg in rabbits

## 7-[12-({5-[(4-methylpiperazin-1-yl)sulfonyl]-2-propoxybenzyl}amino)ethyl] dimethylxanthine [Compound 35]
PDE5 (human platelet)
  IC50: 0.4 ± 0.1 nM
Rabbit Corpus Cavernosal
  pEC50 (−log EC50) for relaxation: 8.25 ± 0.06

## 7-{2-[4-(nitrobenzene)piperazinyl]ethyl}-1,3-dimethylxanthine [Compound 9]
Intracavernous pressure
  Duration of tumescence response: 16 ± 1.2 min
  Peak increased intracavernous pressure ΔICP (mmHg): 25 ± 1.3 mmHg

## 7-{2-[(2-propoxybenzyl)aniino]ethyl}-3-isobutyl-1-methylxanthine [Compound 38]
PDE5 (human platelet)
  IC50: 0.6 ± 0.2 nM
Rabbit Corpus Cavernosal
  pEC50 (−log EC50) for relaxation: 8.16 ± 0.07

## Cn1c(=O)c2c(ncn2CCN2CCN(c3ccccc3Cl)CC2)n(C)c1=O [Compound 4, 7-{2-[4-(2-chlorophenyl)piperazinyl]ethyl}-1,3-dimethylxanthine]
Intracavernous pressure
  Duration of tumescence response: 14 ± 1.1 min
  Peak increased intracavernous pressure ΔICP (mmHg): 14 ± 2.1 mmHg
PDE5 (human platelet)
  IC50: 3.9 ± 0.1 nM
Rabbit Corpus Cavernosal
  IC50: 69.2 nM

## Cn1c(=O)c2c(ncn2CCN2CCN(Cc3ccccc3)CC2)n(C)c1=O [Compound 7, 7-{2-[4-benzylpiperazinyl]ethyl}-1,3-dimethylxanthine]
PDE5 (human platelet)
  IC50: 4.2 ± 0.2 nM
Rabbit Corpus Cavernosal
  IC50: 74.1 nM

## COc1ccccc1N1CCN(CCn2cnc3c2c(=O)n(C)c(=O)n3C)CC1 [Compound 10, 7-{2-[4-(o-Methoxyphenyl)piperazinyl]ethyl}-1,3-dimethylxanthine]
Intracavernous pressure
  Duration of tumescence response: 13 ± 2.1 min
  Peak increased intracavernous pressure ΔICP (mmHg): 12 ± 1.6 mmHg

## CC(C)Cn1c(=O)n(C)c(=O)c2c1ncn2CCN1CCN(c2ncccn2)CC1 [Compound 12, 7-{2-[4-(2-Pyrimidyl)piperazinyl]ethyl}-3-isobutyl-1-methylxanthine]
Intracavernous pressure
  Duration of tumescence response: 15 ± 1.3 min
  Peak increased intracavernous pressure ΔICP (mmHg): 23 ± 1.5 mmHg

## CC(C)Cn1c(=O)n(C)c(=O)c2c1ncn2CCN1CCN(c2ccccc2Cl)CC1 [Compound 14, 7-{2-[4-(2-chlorophenyl)piperazinyl]ethyl}-3-isobutyl-1-methylxanthine]
PDE5 (human platelet)
  IC50: 3.8 ± 0.2 nM
Rabbit Corpus Cavernosal
  IC50: 14.5 nM
Rabbit Corpus Cavernosal; Control (no drug pretreatment)
  EC50: 64.6 nM
Rabbit Corpus Cavernosal; pretreatment 4-AP 100 μM
  EC50: 1480 nM
Rabbit Corpus Cavernosal; pretreatment Glibenclamide 1 μM
  EC50: 269 nM
Rabbit Corpus Cavernosal; pretreatment L-NAME 100 μM
  EC50: 309 nM
Rabbit Corpus Cavernosal; pretreatment Methylene blue 10 μM
  EC50: 309 nM
Rabbit Corpus Cavernosal; pretreatment ODQ 1 μM
  EC50: 162 nM
Rabbit Corpus Cavernosal; pretreatment TEA 10 mM
  EC50: 9180 nM

## CC(C)Cn1c(=O)n(C)c(=O)c2c1ncn2CCN1CCN(Cc2ccccc2)CC1 [Compound 17, 7-{2-[4-benzylpiperazinyl]ethyl}-3-isobutyl-1-methylxanthine]
PDE5 (human platelet)
  IC50: 6.2 ± 0.2 nM
Rabbit Corpus Cavernosal
  IC50: 22.9 nM

## CC(C)Cn1c(=O)n(C)c(=O)c2c1ncn2CCN1CCN(C(=O)c2ccco2)CC1 [Compound 18, 7-{2-[4-(2-furoyl)piperazinyl]ethyl}-3-isobutyl-1-methylxanthine]
Intracavernous pressure
  Duration of tumescence response: 18 ± 1.3 min
  Peak increased intracavernous pressure ΔICP (mmHg): 26 ± 1.4 mmHg

## Cc1ccccc1S(=O)(=O)N1CCN(CCn2cnc3c2c(=O)n(C)c(=O)n3CC(C)C)CC1 [Compound 26, 7-(2-{4-[(2-methylphenyl)sulfonyl]piperazinyl}ethyl)-3-isobutyl-1-methylxanthine]
PDE5 (human platelet)
  IC50: 4.8 ± 0.2 nM
Rabbit Corpus Cavernosal
  IC50: 38 nM

## CCOc1ccc(S(=O)(=O)N2CCN(C)CC2)cc1CNCCn1cnc2c1c(=O)n(C)c(=O)n2C [Compound 34, 7-[2-({5-[(4-methylpiperazin-1-yl)sulfonyl]-2-ethoxybenzyl}amino)ethyl] dimethylxanthine]
PDE5 (human platelet)
  IC50: 0.4 ± 0.2 nM
Rabbit Corpus Cavernosal
  pEC50 (−log EC50) for relaxation: 8.13 ± 0.05

## CCCOc1ccc(C(N)=O)cc1CNCCn1cnc2c1c(=O)n(C)c(=O)n2CC(C)C [Compound 41, 4-propoxy-3-({[2-(3-isobutyl-1-methyl-2,6-dioxo-1,2,3,6-tetrahydro-7H-purin-7-yl)ethyl]amino}methyl)benzamide]
PDE5 (human platelet)
  IC50: 0.8 ± 0.2 nM
Rabbit Corpus Cavernosal
  IC50: 5.01 nM

## CCCn1cnc2c1c(=O)n(C)c(=O)n2CC(C)C [Compound 46]
PDE5 (human platelet)
  IC50: 5.2 ± 0.1 nM
Rabbit Corpus Cavernosal
  pEC50 (−log EC50) for relaxation: 7.96 ± 0.03
